The data set in a line: solvent given as SMILES.

Under “in O=P(c1ccccc1)(c1ccccc1)c1ccccc1Oc1ccccc1P(=O)(c1ccccc1)c1ccccc1”, `CC1(C)c2ccccc2N(c2ccccc2)c2ccc(-c3nc(-c4ccccc4)nc(-c4ccccc4)n3)cc21` returned a fluorescence lifetime of 4.37 ns.
In the case of `CN1C(=CC2=C([O-])C(=CC3=[N+](C)c4ccc(Cl)cc4C3(C)C)C2=O)C(C)(C)c2cc(Cl)ccc21`, the fluorescence lifetime (in CO) was 0.21 ns and the fluorescence lifetime (in ClC(Cl)Cl) was 1.42 ns.
The molecule `c1ccc(/C(=C(\c2ccccc2)c2cc(-c3ccc(-c4ccccc4)cc3)ccc2-c2ccc(-c3ccccc3)cc2)c2cc(-c3ccc(-c4ccccc4)cc3)ccc2-c2ccc(-c3ccccc3)cc2)cc1` showed a fluorescence lifetime (in C1CCOC1) of 8.2 ns.
With `Nc1cccc2c1ccc1[n+]2[B-](F)(F)n2c-1cc1c3ccccc3c3ccccc3c12`, where the note is “in ClCCl”, the fluorescence lifetime amounted to 2.19 ns.
On to `CCCCCCCCN1c2ccccc2Sc2cc(/C=C/c3ccc(N(c4ccc(/C=C/c5ccc6c(c5)Sc5ccccc5N6CCCCCCCC)cc4)c4ccc(/C=C/c5ccc(/C=C/c6ccc(N(c7ccc(/C=C/c8ccc(N(c9ccccc9)c9ccccc9)cc8)cc7)c7ccc(/C=C/c8ccc(N(c9ccccc9)c9ccccc9)cc8)cc7)cc6)c6nsnc56)cc4)cc3)ccc21`, for which the fluorescence lifetime reads like this: (in C1CCOC1) 1.76 ns; (in CCOC(C)=O) 1.79 ns; (in Cc1ccccc1) 3.49 ns; (in ClC(Cl)Cl) 2.38 ns; (in ClCCl) 1.75 ns.
`O=C(O)CCCOc1cc2ccc3cccc4ccc(c1)c2c34` displayed a fluorescence lifetime (in CO) of 59 ns.
Molecule `CCCCCCCCN(CCCCCCCC)c1ccc(/C=C/c2ccc(C#Cc3ccc(-c4ccc(C#Cc5ccc(/C=C/c6ccc(N(CCCCCCCC)CCCCCCCC)cc6)cc5)cc4)cc3)cc2)cc1` yielded a fluorescence lifetime (in Cc1ccccc1) of 0.4 ns.
For `Cn1c(=O)c(/N=N/c2cc(S(=O)(=O)O)ccc2C(=O)O)c(O)c2ccccc21`, the fluorescence lifetime (in CS(C)=O) amounted to 0.06 ns.
For the molecule `CC(C)[Si](C#Cc1ccc(C#C[Si](C(C)C)(C(C)C)C(C)C)c2nc3ccccc3nc12)(C(C)C)C(C)C`, the fluorescence lifetime (in ClCCl) was found to be 0.37 ns.
For the molecule `O=C(c1ccccc1)c1cc2ccc1CCc1ccc(cc1-c1ccc(N(c3ccccc3)c3ccccc3)cc1)CC2`, the fluorescence lifetime (in c1cc(-n2c3ccccc3c3ccccc32)cc(-n2c3ccccc3c3ccccc32)c1) amounted to 17 ns.
On to `CCCCCCCCCCCCN1C(=O)c2c(c3ccc4cc(-c5ccc(OC)cc5)c(OC)cc4c3c3c2ccc2cc(-c4ccc(OC)cc4)c(OC)cc23)C1=O`, for which the fluorescence lifetime (in ClCCl) turned out to be 6.44 ns.
In turn, `CCN(CC)c1ccc2cc3c([o+]c2c1)/C(=C/Nc1ccccc1)CCC3` came in with a fluorescence lifetime (in CCO) of 4.05 ns, a fluorescence lifetime (in ClC(Cl)Cl) of 2.65 ns and a fluorescence lifetime (in ClCCl) of 4.97 ns.
Consider `CCCCCCN1C(=O)c2cccc3c(-c4scc5c4OCCO5)ccc(c23)C1=O`, for which the fluorescence lifetime (in ClC(Cl)Cl) worked out at 3.51 ns.
In the case of `COc1ccc(C2=C3C(C)=CC(C=Cc4ccc(C(=O)OC5C[C@H]6CCC5(C)C6(C)C)cc4)=[N+]3[B-](F)(F)n3c(/C=C/c4ccc(C(=O)OC5CC6CCC5(C)C6(C)C)cc4)cc(C)c32)cc1` (some centres not stated), for the setting “in Cc1ccccc1”, the fluorescence lifetime is 2.6 ns.
Take `CC1=C(I)C(C)=[N+]2C1=C(c1c(-c3ccccn3)nc3ccccn13)c1c(C)c(I)c(C)n1[B-]2(F)F`: where the note is “in ClCCl”, the fluorescence lifetime was 0.4 ns.
Under “in Cc1ccccc1”, `COc1ccc(N(c2ccccc2)c2ccc(OC)cc2)cc1` displayed a fluorescence lifetime of 2.27 ns.
As to `CN(C)c1ccc(N(C)C)cc1`, the fluorescence lifetime (in C1CCCCC1) was found to be 6.1 ns.
As for `COc1ccc(-c2nc(C)cc(-c3ccc(-n4c5ccccc5c5ccccc54)cc3)n2)cc1`, the fluorescence lifetime runs as follows: (in C1CCOC1) 3.76 ns; (in CN(C)C=O) 6.51 ns; (in Cc1ccccc1) 1.87 ns; (in ClC(Cl)Cl) 3.91 ns.
For the molecule `Cc1ccc2c(c1)c1cc(C)ccc1n2-c1c(-n2c3ccccc3c3ccccc32)c(C#N)c(-n2c3ccccc3c3ccccc32)c(-n2c3ccc(C)cc3c3cc(C)ccc32)c1-n1c2ccccc2c2ccccc21`, under “in Cc1ccccc1”, the fluorescence lifetime was found to be 5.9 ns.
Regarding `CCCCCCn1c2ccccc2c2cc3c4cc5c6ccccc6n(CCCCCC)c5cc4c4cc5c(C)cc(=O)oc5cc4c3cc21`, the fluorescence lifetime (in ClC(Cl)Cl) came to 3.1 ns.
`CCN(CC)c1ccc2cc(C#N)/c(=N\C(=O)c3ccccc3)oc2c1`: for the setting “in ClCCl”, the fluorescence lifetime was determined as 3 ns.
With `CCCCCCOc1ccc(N(c2ccc(OCCCCCC)cc2)c2ccc(-c3sc(-c4ccc(N(c5ccc(OCCCCCC)cc5)c5ccc(OCCCCCC)cc5)cc4)c4nc(CC)c(CC)nc34)cc2)cc1`, the fluorescence lifetime is, setting by setting: (in CN(C)C=O) 0.92 ns; (in ClC(Cl)Cl) 1.09 ns.
Turning to `COc1ccc2cc([C@H](C)C(=O)O)ccc2c1`, the fluorescence lifetime is, setting by setting: (in C1CCOC1) 11 ns; (in CC#N) 9.96 ns; (in CC(C)O) 10.8 ns; (in CCCCO) 11.4 ns; (in CCO) 10.4 ns; (in CO) 8.48 ns. Besides, the fluorescence lifetime reads like this: (in ClCCl) 6.93 ns; (in O) 9.6 ns.
Turning to `CC(=O)Nc1ccccc1C(=O)OC1CC(C)CCC1C(C)C` (configuration not stated), the fluorescence lifetime reads like this: (in C1CCCCC1) 4 ns; (in CC#N) 3.4 ns; (in CCO) 3.6 ns; (in Cc1ccccc1) 3.9 ns.
`Cc1cccc2ccccc12` came in with a fluorescence lifetime (in C1CCCCC1) of 140 ns.
Take `CC(C)(C)c1ccc(-c2nc3c4ccc(-c5cc6ccccc6c6ccccc56)cc4c4cc(-c5cc6ccccc6c6ccccc56)ccc4c3n2-c2ccc(C(C)(C)C)cc2)cc1`: the fluorescence lifetime (in ClCCl) is 7 ns.
Consider `CN(C)c1ccc(C#Cc2cc3ccc4cc(C#Cc5ccc(N(C)C)cc5)cc5ccc(c2)c3c45)cc1`, for which the fluorescence lifetime (in Cc1ccccc1) stood at 60 ns.
As to `Cc1ccccc1-c1cc(-c2ccc(N3c4ccccc4C(C)(C)c4ccccc43)cc2)nc(-c2ccccc2)n1`, the fluorescence lifetime by setting is: (in Cc1ccccc1) 2.76 ns; (in ClCCl) 22.7 ns.
In the case of `O=c1[nH]c(=O)n([C@@H]2O[C@H](CO)[C@@H](O)[C@H]2O)cc1-c1cc2ccccc2s1`, the fluorescence lifetime reads like this: (in C1COCCO1) 0.45 ns; (in CC#N) 0.49 ns; (in CO) 0.6 ns; (in O) 1.04 ns.
In the case of `CN(CC(O)c1cccc(O)c1)c1ccc([N+](=O)[O-])c(C2CC(c3cccc4ccccc34)=NN2c2ccccc2)c1` (configuration not stated), the fluorescence lifetime worked out at 1.14 ns (in C1CCCCC1); 3.56 ns (in C1CCOC1); 3.58 ns (in C1COCCO1); 3.95 ns (in CC#N); 3.42 ns (in CC(C)O); 4.01 ns (in CCOC(C)=O). Besides, the fluorescence lifetime came out at 2 ns (in CCOCC); 3.01 ns (in CO); 1.72 ns (in Cc1ccccc1); 2.8 ns (in ClC(Cl)Cl); 2.42 ns (in O).
As for `CCCCCCCCCCCCN1C(=O)c2c(c3ccc4cc(-c5ccc(C#N)cc5)c(OC)cc4c3c3c2ccc2cc(-c4ccc(C#N)cc4)c(OC)cc23)C1=O`, the fluorescence lifetime (in ClCCl) turned out to be 6.3 ns.
Regarding `COC(=O)C(NC(=O)OC(C)(C)C)c1ccc2oc(-c3ccc(N(C)C)cc3OC)nc2c1` (configuration not stated), the fluorescence lifetime (in CC1CCCCC1) stood at 1.25 ns, the fluorescence lifetime (in CC#N) was determined as 1.24 ns and the fluorescence lifetime (in CO) was found to be 1.32 ns.
As for `CC1=C2C=CC(C)=[N+]2[B-](F)(F)n2cccc21`, the fluorescence lifetime reads like this: (in CCCCCC) 6.61 ns; (in CO) 6.76 ns; (in ClCCl) 6.23 ns.

These data come from the Deep4Chem optical property database.
